Measured values published in PubChem BioAssay AID1959 (Broad Institute, 2009).
The source made the active and inactive calls.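 The calls were made as follows: active = growth-inhibition EC50 no more than tenfold above the top tested dose; inconclusive = flat fit between 30% and 70% inhibition, or unreliable fit; inactive = EC50 more than tenfold above the top tested dose.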

These compounds were tested on E. coli NEB5alpha growth, BacTiter-Glo luminescence, 4 h (assay: Escherichia coli growth inhibition, dose response, counter-screen for MEX-5/POS-1 RNA-binding inhibitor project, luminescence, NEB5alpha (AID 1959);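 also: pUC19-transformed ampicillin-resistant cells grown in LB with ampicillin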).
`CCCCn1c(O)c(C(=O)/C=C/c2ccc3c(c2)OCO3)c(=O)[nH]c1=O` was tested, and the EC50 was > 11 µM (inactive).
For `CCOC(=O)C1=C(C)OC(N)=C(C#N)C1c1ccc(O)c(OC)c1` (stereo not given), the EC50 was > 11 µM (inactive).
For `N#CC1=C(N)OC2=C(C(=O)CCC2)C1c1ccccc1` (stereo not given), the EC50 was > 11 µM (inactive).
With `CC1CCN(C(=O)CCN2C(=O)/C(=C/c3cccs3)SC2=S)CC1` the EC50 was > 11 µM (inactive).
For `NC1=NC(=O)/C(=C/c2ccc(-c3ccc(S(N)(=O)=O)cc3)o2)S1`, the EC50 was > 11 µM (inactive).
With `Cc1c(N=C2Nc3cccc4cccc2c34)c(=O)n(-c2ccccc2)n1C` the EC50 was > 11 µM (inactive).
`Cc1ccc(N/C=C2/Sc3ccccc3NC2=O)cc1` was tested, and the EC50 was > 11 µM (inactive).
With `N=c1c(C(=O)NCCN2CCOCC2)cc2c(=O)n3ccccc3nc2n1CCc1ccccc1` the EC50 was > 11 µM (inactive).
In the case of `COc1cc(NC(=O)CSc2nnc3ccc(-c4ccncc4)nn23)cc(OC)c1`, the EC50 is reported as > 11 µM (inactive).
In the case of `Cc1ccc(N2C(=O)/C(=C/c3ccc(CN(CCC#N)S(C)(=O)=O)o3)C(=O)NC2=S)cc1C`, the EC50 is reported as > 11 µM (inactive).
In the case of `COc1ccc(C2OC34CCCCC3C(C#N)(C#N)C2(C#N)C(=N)O4)cc1` (stereo not given), the EC50 is reported as > 11 µM (inactive).
For `COc1ccc(C2C(C#N)=C(N)OC3=C2C(=O)CC(C)(C)C3)cc1OC` (stereo not given), the EC50 was > 11 µM (inactive).
`COc1cc(C(c2c(C)[nH][nH]c2=O)c2c(C)[nH][nH]c2=O)cc([N+](=O)[O-])c1O` was tested, and the EC50 was > 11 µM (inactive).
For `O=[N+]([O-])c1cc(-c2ccc(/C=N/n3cnnc3)o2)ccc1Cl`, the EC50 was > 11 µM (inactive).
With `COc1cc(NC(=O)CSc2nc3ncnc(N)c3[nH]2)c(C(=O)O)cc1OC` the EC50 was > 11 µM (inactive).
With `COc1ccccc1N1CC(C(=O)Nc2nnc(SCC(=O)NC(C)C)s2)CC1=O` (stereo not given) the EC50 was > 11 µM (inactive).
`Cc1cc2c3c(c1)C(C)CC(C)(C)N3C(=O)C2=O` (stereo not given) was tested, and the EC50 was > 11 µM (inactive).
With `O=C(O)CCC(=O)N1N=C(c2cccs2)CC1c1cn(-c2ccccc2)nc1-c1ccccc1` (stereo not given) the EC50 was > 11 µM (inactive).
`CCOc1ccccc1NC(=O)Nc1ccc(OC)nc1` was tested, and the EC50 was > 11 µM (inactive).
With `O=C(NCc1ccccc1)C1Nc2ccc(OC(F)(F)F)cc2C2C=CCC12` (stereo not given) the EC50 was > 11 µM (inactive).
For `Cn1c(O)c(C=NCCCCCCCCCCC(=O)O)c(=O)n(C)c1=O`, the EC50 was > 11 µM (inactive).
For `Cc1cccn2c(=O)c3cc(C#N)c(=NC(=O)c4cccs4)n(CCCOC(C)C)c3nc12`, the EC50 was > 11 µM (inactive).
For `COc1cccc(OCCCn2cc(/C=C3/C(=N)N4C=C(C)SC4=NC3=O)c3ccccc32)c1`, the EC50 was > 11 µM (inactive).
In the case of `O=C(/C=C/c1c(Cl)cccc1Cl)N1CCOCC1`, the EC50 is reported as > 11 µM (inactive).
In the case of `COc1ccc(C(=O)Nc2nc(-c3ccc([N+](=O)[O-])cc3)c(-c3ccccc3)s2)cc1`, the EC50 is reported as > 11 µM (inactive).
For `COc1cccc(/C=N/NC(=O)c2ccc(=O)[nH]n2)c1O`, the EC50 was > 11 µM (inactive).
With `CC(NC(=O)COc1ccccc1)C(=O)OCC(=O)c1cc2ccccc2o1` (stereo not given) the EC50 was > 11 µM (inactive).
For `C=CCn1ccc(=NC=C(C#N)C#N)c2ccccc21`, the EC50 was > 11 µM (inactive).
In the case of `CCCn1c(O)c(CN2CCCC(C)C2)c(C)c(C#N)c1=O` (stereo not given), the EC50 is reported as > 11 µM (inactive).
`COc1ccc2c(-c3ccccc3)cc(SCC(N)=O)nc2c1` was tested, and the EC50 was > 11 µM (inactive).
`Cc1cccc(N2C(=O)/C(=C/c3ccc(N4CCN(C)CC4)o3)C(=O)NC2=S)c1C` was tested, and the EC50 was > 11 µM (inactive).
With `CC1=C(C#N)C(=O)NC(=O)/C1=C\c1ccc(-c2ccc(C)cc2[N+](=O)[O-])o1` the EC50 was > 11 µM (inactive).
In the case of `Cc1c(C(=O)O)cccc1-n1c(C)cc(C=O)c1C`, the EC50 is reported as > 11 µM (inactive).
`N=c1c(S(=O)(=O)c2ccc(Cl)cc2)cc2c(=O)n3ccccc3nc2n1CCc1ccccc1` was tested, and the EC50 was > 11 µM (inactive).
In the case of `O=C1CCC/C1=c1\s/c(=C\c2cccnc2)c(=O)n1-c1ccccc1`, the EC50 is reported as > 11 µM (inactive).
`N#C/C(=C(/O)c1cc2ccccc2o1)c1nc2ccccc2s1` was tested, and the EC50 was > 11 µM (inactive).
In the case of `CN1C(=O)C(=Cc2cn(CC(=O)N3CCCC3)c3ccccc23)C(=O)N(C)C1=O`, the EC50 is reported as > 11 µM (inactive).
With `O=c1cc(-c2ccc(O)c(O)c2)oc2cc(O)cc(O)c12` the EC50 was > 11 µM (inactive).
For `COC/C=C/C1=CC2=CC(=O)C(C)(OC(=O)c3cccs3)C(=O)C2=CO1` (stereo not given), the EC50 was > 11 µM (inactive).
In the case of `O=C(N/N=C\c1c(O)ccc2ccccc12)c1cncc(Br)c1`, the EC50 is reported as > 11 µM (inactive).
In the case of `c1ccc(-c2nc(-c3ccccn3)nc(-c3ccccn3)n2)nc1`, the EC50 is reported as > 11 µM (inactive).
`Cn1cc(/C=C2\C(=O)NC(=O)N(c3ccccc3)C2=O)c2ccccc21` was tested, and the EC50 was > 11 µM (inactive).
`CC1(OC(=O)c2ccco2)C(=O)C=C2C=C(C3CC3)OC=C2C1=O` (stereo not given) was tested, and the EC50 was > 11 µM (inactive).
With `CC1(OC(=O)c2cnc3ccccc3n2)C(=O)C=C2C=C(C3CC3)OC=C2C1=O` (stereo not given) the EC50 was > 11 µM (inactive).
With `CCCC[n+]1ccn(C2=C([O-])c3ccccc3C(=O)/C2=N\S(=O)(=O)c2ccc(Cl)cc2)c1` the EC50 was > 11 µM (inactive).
In the case of `Cc1nc(S/C(=C/c2ccc(OCc3ccc(C(=O)O)cc3)cc2)C(=O)O)n[nH]1`, the EC50 is reported as > 11 µM (inactive).
`CCC(=O)Nc1cc(C)c(NC(=O)CCc2ccccc2)cn1` was tested, and the EC50 was > 11 µM (inactive).
For `O=C(Cc1ccccc1)Nc1ccc(N2CCOCC2)cc1N1CCOCC1`, the EC50 was > 11 µM (inactive).
`NC(=O)c1ccsc1N` was tested, and the EC50 was > 11 µM (inactive).
For `CCn1nc(C)c(/C=C2\CCCC3=C2OC(N)=C(C#N)C3c2c(C)nn(CC)c2C)c1C` (stereo not given), the EC50 was > 11 µM (inactive).
With `CNC(=O)NC(=O)COC(=O)c1ccc(-n2c(C)ccc2C)cc1` the EC50 was > 11 µM (inactive).
For `CCOc1cc(C2C(C#N)=C(N)OC(C)=C2C(C)=O)cc(Br)c1O` (stereo not given), the EC50 was > 11 µM (inactive).
With `O=C(O)Cc1ccc(O)c(O)c1` the EC50 was > 11 µM (inactive).
For `Cc1ccc(C2C3CN(C(C)C)CC=C3C(C#N)=C(N)C2(C#N)C#N)cc1` (stereo not given), the EC50 was > 11 µM (inactive).
For `CCOC(=O)C1=C(C)N=c2s/c(=C/c3ccc(OCC(=O)O)cc3)c(=O)n2C1c1ccc(OC)cc1OC` (stereo not given), the EC50 was > 11 µM (inactive).
For `O=C(O)C1Nc2c(cccc2C(F)(F)F)C2C=CCC12` (stereo not given), the EC50 was > 11 µM (inactive).
For `Cc1cc(NS(=O)(=O)c2ccc(Nc3nc(-c4sc(N)nc4C)cs3)cc2)no1`, the EC50 was > 11 µM (inactive).
`COc1ccc(OC)c(C(=O)c2coc3ccc(O)c(CN4CCOCC4)c23)c1` was tested, and the EC50 was > 11 µM (inactive).
In the case of `O=C(O)CCN1C(=O)/C(=C/c2ccc(-c3nc4ccccc4s3)o2)SC1=S`, the EC50 is reported as > 11 µM (inactive).
For `Cc1ccc(-c2ccccc2)n1-c1cccc(C(=O)O)c1`, the EC50 was > 11 µM (inactive).
In the case of `CCN(CC)c1ccc(C=C2C(=O)OC(C)(C(C)(C)C)OC2=O)cc1` (stereo not given), the EC50 is reported as > 11 µM (inactive).
With `C(#Cc1ccc2c(c1)COc1c3ccccc3nn1-2)c1ccccc1` the EC50 was > 11 µM (inactive).
For `CC(=O)/C(N=Nc1nc2c([nH]1)c(=O)n(C)c(=O)n2C)=C(\C)O`, the EC50 was > 11 µM (inactive).
`Oc1ccc(C2C[C@H]3CC[C@@H]2C3)cc1O` (stereo not given in full) was tested, and the EC50 was > 11 µM (inactive).
For `COCCN1CCC(CNCc2cn[nH]c2-c2ccc(C)c(C)c2)C1` (stereo not given), the EC50 was > 11 µM (inactive).
With `O=C(NCCCN1CCOCC1)C1Nc2ccc(OC(F)(F)F)cc2C2C=CCC12` (stereo not given) the EC50 was > 11 µM (inactive).
In the case of `CCN1C(=O)/C(=C2\SC(=S)N(NC(=O)c3ccccc3O)C2=O)c2ccccc21`, the EC50 is reported as > 11 µM (inactive).
For `N#CC(C#N)=Cc1ccc(NC(=O)c2ccc(Br)cc2)cc1`, the EC50 was > 11 µM (inactive).
In the case of `Cc1ccc(/C=C2\Oc3c(ccc(O)c3CN3CCN(C)CC3)C2=O)cc1`, the EC50 is reported as > 11 µM (inactive).
`CCCCNC(=O)c1cc2c(=O)n3cccc(C)c3nc2n(Cc2ccncc2)c1=N` was tested, and the EC50 was > 11 µM (inactive).
`O=C(O[C@@H]1Cc2c(O)cc(O)cc2O[C@@H]1c1cc(O)c(O)c(O)c1)c1cc(O)c(O)c(O)c1` was tested, and the EC50 was > 11 µM (inactive).
For `COc1ccc(S(=O)(=O)NNC(=O)C(=O)NNc2ccccn2)cc1`, the EC50 was > 11 µM (inactive).
In the case of `COc1ccc(NC(=O)c2sc3nc(-c4cccnc4)ccc3c2N)cc1`, the EC50 is reported as > 11 µM (inactive).
With `O=C(NCc1cccs1)C1CCN(S(=O)(=O)c2ccc(Br)s2)CC1` the EC50 was > 11 µM (inactive).
For `Cc1ccc(-c2cc(-c3ccco3)c(C#N)c(=O)[nH]2)cc1`, the EC50 was > 11 µM (inactive).
For `CC(C)(C)c1ccc(C(=O)Nc2cccc3ncccc23)cc1`, the EC50 was > 11 µM (inactive).
For `COC(=O)Cn1cc(C=C2C(=O)N(C)C(=O)N(C)C2=O)c2ccccc21`, the EC50 was > 11 µM (inactive).
With `CC1(C)CC(=O)C2=C(C1)OC(N)=C(C#N)C2c1cc2c(cc1[N+](=O)[O-])OCO2` (stereo not given) the EC50 was > 11 µM (inactive).
With `CCc1c(C)nc(SCC(=O)c2cccs2)c(C#N)c1C` the EC50 was > 11 µM (inactive).
`Cc1cc(CC(C)C)n(-c2nc3ccccc3c(=O)n2OCc2ccccc2)n1` was tested, and the EC50 was > 11 µM (inactive).
With `COc1cccc(N2C(=O)NC(=O)/C(=C/c3ccc4c(c3)Cc3ccccc3-4)C2=O)c1` the EC50 was > 11 µM (inactive).
For `C=CCN1C(=O)S/C(=C\c2ccc(N3CCOCC3)cc2C)C1=O`, the EC50 was > 11 µM (inactive).
For `Cc1ccc(N=Cc2sc(O)c3ccccc23)c(C)c1`, the EC50 was > 11 µM (inactive).
For `CCCNc1c(F)c(F)c2c(C)c3ccccc3nc2c1F`, the EC50 was > 11 µM (inactive).
`O=C1/C(=C/c2ccc(O)c(O)c2)SC(=S)N1Nc1ccccc1` was tested, and the EC50 was > 11 µM (inactive).
With `Cc1ccc(-c2[nH]c3cc(C(N)=O)ccc3c(=O)c2O)cc1` the EC50 was > 11 µM (inactive).
In the case of `Cc1ccc(S(=O)(=O)c2cc3c(=O)n4ccccc4nc3n(CCc3ccccc3)c2=N)cc1`, the EC50 is reported as > 11 µM (inactive).
For `O=C1c2cc(F)ccc2-n2c1nc1ccccc1c2=O`, the EC50 was > 11 µM (inactive).
In the case of `Cc1ccc(N/C=C/C(=O)c2sc(-c3ccccc3)nc2C)cc1`, the EC50 is reported as > 11 µM (inactive).
In the case of `Oc1[nH]c2ccccc2c1N=Nc1ccc(F)cc1`, the EC50 is reported as > 11 µM (inactive).
`Cc1ccc(-n2[nH]c(C)c(/C=N/NC(=O)c3ccc(O)cc3O)c2=O)cc1` was tested, and the EC50 was > 11 µM (inactive).
For `CN1CCC2(CC1)C(C#N)=C(N)NC(S)=C2C#N`, the EC50 was > 11 µM (inactive).
`COc1cc(/C=N/Nc2nc(=O)[nH]nc2C)ccc1O` was tested, and the EC50 was > 11 µM (inactive).
For `CCN(CC)C(=O)Cn1cc(C(=O)C(=O)N2CCc3ccccc32)c2ccccc21`, the EC50 was > 11 µM (inactive).
`COc1cc(C(c2c(C(=O)O)[nH]c3ccccc23)c2c(C(=O)O)[nH]c3ccccc23)ccc1OCc1ccccc1` was tested, and the EC50 was > 11 µM (inactive).
